In ChEMBL document CHEMBL1201862, “PubChem BioAssay data set” (2004):
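1) Cells in 96-well plates. 2) Compound, 48 h, 5 concentrations. 3) Linear interpolation between surrounding doses. 4) Unreached endpoint = highest concentration. At the GI50, growth is halved.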 Active and inactive are the calls of the source. No stated cut-off is given here; in the data, active = GI50 up to about 1.1 µM and inactive = higher.

Key:
Test in all cases: NCI-60 cell line screen, 48 h
M14 = tested on: M14
COLO 205 = tested on: COLO 205
OVCAR-5 = tested on: OVCAR-5
UACC-257 = tested on: UACC-257
HCC 2998 = tested on: HCC 2998
MOLT-4 = tested on: MOLT-4
U-251 = tested on: U-251
DU-145 = tested on: DU-145
786-0 = tested on: 786-0
SNB-75 = tested on: SNB-75
T47D = tested on: T47D
HOP-92 = tested on: HOP-92
HOP-62 = tested on: HOP-62
SF-268 = tested on: SF-268
NCI-H460 = tested on: NCI-H460
HCT-116 = tested on: HCT-116
SK-MEL-28 = tested on: SK-MEL-28
HL-60 = tested on: HL-60
MCF7 = tested on: MCF7
SK-MEL-2 = tested on: SK-MEL-2
NCI-H23 = tested on: NCI-H23
BT-549 = tested on: BT-549
LOX IMVI = tested on: LOX IMVI
NCI/ADR-RES = tested on: NCI/ADR-RES
RXF 393 = tested on: RXF 393
NCI-H226 = tested on: NCI-H226
SW-620 = tested on: SW-620
A549 = tested on: A549
HT-29 = tested on: HT-29
OVCAR-4 = tested on: OVCAR-4
K562 = tested on: K562
MDA-MB-231 = tested on: MDA-MB-231
CAKI-1 = tested on: CAKI-1
OVCAR-3 = tested on: OVCAR-3
SNB-19 = tested on: SNB-19
OVCAR-8 = tested on: OVCAR-8
Hs-578T = tested on: Hs-578T
SF-539 = tested on: SF-539
RPMI-8226 = tested on: RPMI-8226
SR = tested on: SR
MDA-MB-435 = tested on: MDA-MB-435
SK-OV-3 = tested on: SK-OV-3
HCT-15 = tested on: HCT-15
IGROV-1 = tested on: IGROV-1
A498 = tested on: A498
SK-MEL-5 = tested on: SK-MEL-5
SN12C = tested on: SN12C
UACC-62 = tested on: UACC-62
MDA-N = tested on: MDA-N
KM12 = tested on: KM12
CCRF-CEM = tested on: CCRF-CEM
PC-3 = tested on: PC-3
ACHN = tested on: ACHN
SF-295 = tested on: SF-295
NCI-H522 = tested on: NCI-H522
UO-31 = tested on: UO-31
EKVX = tested on: EKVX
TK-10 = tested on: TK-10

N=c1oc2ccc(Cl)cc2cc1C(=O)NC1CCCCC1
GI50 (M14): > 100 µM (inactive) | GI50 (COLO 205): 51.6 µM (inactive) | GI50 (OVCAR-5): > 100 µM (inactive) | GI50 (UACC-257): > 100 µM (inactive) | GI50 (HCC 2998): 32.1 µM (inactive) | GI50 (MOLT-4): 44.2 µM (inactive) | GI50 (U-251): > 100 µM (inactive) | GI50 (DU-145): 73.8 µM (inactive) | GI50 (786-0): 87.9 µM (inactive) | GI50 (SNB-75): 84.5 µM (inactive) | GI50 (T47D): 66.2 µM (inactive) | GI50 (HOP-92): > 100 µM (inactive) | GI50 (HOP-62): > 100 µM (inactive) | GI50 (SF-268): > 100 µM (inactive) | GI50 (NCI-H460): 59.6 µM (inactive) | GI50 (HCT-116): 55.5 µM (inactive) | GI50 (SK-MEL-28): 98.6 µM (inactive) | GI50 (HL-60): 39.7 µM (inactive) | GI50 (MCF7): 58.6 µM (inactive) | GI50 (SK-MEL-2): 47.6 µM (inactive) | GI50 (NCI-H23): > 100 µM (inactive) | GI50 (BT-549): > 100 µM (inactive) | GI50 (LOX IMVI): 53 µM (inactive) | GI50 (NCI/ADR-RES): 81.5 µM (inactive) | GI50 (RXF 393): > 100 µM (inactive) | GI50 (NCI-H226): 90.4 µM (inactive) | GI50 (SW-620): 96.4 µM (inactive) | GI50 (A549): 71.3 µM (inactive) | GI50 (HT-29): > 100 µM (inactive) | GI50 (OVCAR-4): > 100 µM (inactive) | GI50 (K562): 66.7 µM (inactive) | GI50 (MDA-MB-231): > 100 µM (inactive) | GI50 (CAKI-1): > 100 µM (inactive) | GI50 (OVCAR-3): 44.4 µM (inactive) | GI50 (SNB-19): > 100 µM (inactive) | GI50 (OVCAR-8): > 100 µM (inactive) | GI50 (Hs-578T): 30.9 µM (inactive) | GI50 (SF-539): 81.8 µM (inactive) | GI50 (RPMI-8226): 59.3 µM (inactive) | GI50 (SR): 51.5 µM (inactive) | GI50 (MDA-MB-435): 49.2 µM (inactive) | GI50 (SK-OV-3): > 100 µM (inactive) | GI50 (HCT-15): 37.8 µM | GI50 (IGROV-1): 41 µM (inactive) | GI50 (A498): 63.8 µM (inactive) | GI50 (SK-MEL-5): 84.3 µM (inactive) | GI50 (SN12C): > 100 µM (inactive) | GI50 (UACC-62): 59.2 µM (inactive) | GI50 (MDA-N): 88.5 µM (inactive) | GI50 (KM12): 47.6 µM (inactive) | GI50 (CCRF-CEM): 33.7 µM (inactive) | GI50 (PC-3): 68.5 µM (inactive) | GI50 (ACHN): > 100 µM (inactive)

CCc1nc(N)nc(N)c1-c1ccc(Cl)c(/N=N/N(C)C)c1
GI50 (M14): 22.5 µM (inactive) | GI50 (COLO 205): 24.1 µM (inactive) | GI50 (OVCAR-5): > 82 µM (inactive) | GI50 (UACC-257): 29.4 µM (inactive) | GI50 (HCC 2998): 23.7 µM (inactive) | GI50 (MOLT-4): 26.5 µM (inactive) | GI50 (U-251): 34.5 µM (inactive) | GI50 (DU-145): 55.7 µM (inactive) | GI50 (786-0): 35 µM (inactive) | GI50 (SF-295): 26.5 µM (inactive) | GI50 (SNB-75): 61 µM (inactive) | GI50 (T47D): 39.7 µM (inactive) | GI50 (NCI-H522): 27.7 µM (inactive) | GI50 (HOP-92): 47.8 µM (inactive) | GI50 (HOP-62): 23.2 µM (inactive) | GI50 (SF-268): 49.2 µM (inactive) | GI50 (UO-31): 18.4 µM (inactive) | GI50 (NCI-H460): 6.59 µM (inactive) | GI50 (HCT-116): 15.4 µM (inactive) | GI50 (SK-MEL-28): 29.1 µM (inactive) | GI50 (HL-60): 20.8 µM (inactive) | GI50 (MCF7): 37.7 µM (inactive) | GI50 (SK-MEL-2): 32.2 µM (inactive) | GI50 (NCI-H23): 27.4 µM (inactive) | GI50 (BT-549): 30.1 µM (inactive) | GI50 (LOX IMVI): 24.5 µM (inactive) | GI50 (NCI/ADR-RES): 23.8 µM (inactive) | GI50 (RXF 393): 41.4 µM (inactive) | GI50 (NCI-H226): 59.6 µM (inactive) | GI50 (SW-620): 27.4 µM (inactive) | GI50 (A549): 17.2 µM (inactive) | GI50 (HT-29): 18.7 µM (inactive) | GI50 (OVCAR-4): 25.1 µM (inactive) | GI50 (K562): 8.04 µM (inactive) | GI50 (MDA-MB-231): 48.8 µM (inactive) | GI50 (CAKI-1): 36.1 µM (inactive) | GI50 (OVCAR-3): 37.6 µM (inactive) | GI50 (SNB-19): 44.4 µM (inactive) | GI50 (OVCAR-8): 40.5 µM (inactive) | GI50 (Hs-578T): 30.3 µM (inactive) | GI50 (SF-539): 23.1 µM (inactive) | GI50 (RPMI-8226): 19 µM (inactive) | GI50 (EKVX): 32.7 µM (inactive) | GI50 (SR): 19.1 µM (inactive) | GI50 (MDA-MB-435): 27.9 µM (inactive) | GI50 (SK-OV-3): > 89.3 µM (inactive) | GI50 (HCT-15): 17.1 µM | GI50 (IGROV-1): 24.1 µM (inactive) | GI50 (A498): 52 µM (inactive) | GI50 (SK-MEL-5): 20.7 µM (inactive) | GI50 (SN12C): 67.8 µM (inactive) | GI50 (UACC-62): 24.9 µM (inactive) | GI50 (MDA-N): 36 µM (inactive) | GI50 (KM12): 28.4 µM (inactive) | GI50 (CCRF-CEM): 27 µM (inactive) | GI50 (TK-10): > 100 µM (inactive) | GI50 (PC-3): 24.5 µM (inactive) | GI50 (ACHN): 28.6 µM (inactive)
